We go through 7 test systems from the supplement of paper PMC6045584.

± gives the standard deviation of the averaged measurements.

Compound in experiment [1]: COc1cc(CCc2cc(NC(=O)c3ccc(N4CC(C)NC(C)C4)cc3)n[nH]2)cc(OC)c1 [AZD4547]
In words: surviving fraction relative to DMSO-only wells; higher = less growth inhibition. Particulars: exposure time: 5 days. Put shortly: (§1)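 Viability was scored with CellTiter-Glo luminescence and normalised to the median of DMSO-only wells as surviving fraction. Beforehand, log-phase tumour cell lines were seeded at 250–500 cells per well in 384-well plates, allowed 24 hours, and exposed continuously for five days to inhibitors at 0.5, 1, 5, 10, 50, 100, 500 and 1000 nM. Only lines whose three screens gave replicate Pearson r >0.7 and median Z' >0.3 were kept.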

Compound in experiment [2]: CCCS(=O)(=O)Nc1ccc(F)c(C(=O)c2c[nH]c3ncc(Cl)cc23)c1F [PLX-4720]
Described as above. The settings on record: exposure time: 5 days. Summed up:
as §1

For the test system C33A CERVIX, the surviving fraction in experiment [1] (0.5 nM) turned out to be 0.847 ± 0.084; in experiment [1] (1 nM), 0.948 ± 0.074; in experiment [1] (5 nM), 0.96 ± 0.027; in experiment [1] (10 nM) it was 0.969 ± 0.099; in experiment [1] (50 nM) it was 0.915 ± 0.015; in experiment [1] (100 nM) it was 0.953 ± 0.1. In addition, the surviving fraction came to 0.811 ± 0.024 in experiment [1] (500 nM); 0.75 ± 0.086 in experiment [1] (1000 nM); 1.03 ± 0.18 in experiment [2] (0.5 nM); 0.994 ± 0.044 in experiment [2] (1 nM); 1.12 ± 0.14 in experiment [2] (5 nM); 1.13 ± 0.045 in experiment [2] (10 nM). The surviving fraction in experiment [2] (50 nM) was 1.01 ± 0.17; in experiment [2] (100 nM), 1.05 ± 0.13; in experiment [2] (500 nM), 0.946 ± 0.1; in experiment [2] (1000 nM) it was 1.06 ± 0.13.
As for CAL72 BONE, the surviving fraction in experiment [1] (0.5 nM) was 1.08 ± 0.022; in experiment [1] (1 nM) it was 1.096 ± 0.0035; in experiment [1] (5 nM), 1.05 ± 0.043; in experiment [1] (10 nM) it was 0.791 ± 0.067; in experiment [1] (50 nM) it was 0.331 ± 0.028; in experiment [1] (100 nM), 0.257 ± 0.013. In addition, the surviving fraction in experiment [1] (500 nM) was 0.19 ± 0.031; in experiment [1] (1000 nM) it was 0.158 ± 0.026; in experiment [2] (0.5 nM), 0.969 ± 0.041; in experiment [2] (1 nM), 1.02 ± 0.036; in experiment [2] (5 nM), 0.964 ± 0.015; in experiment [2] (10 nM), 1.03 ± 0.035. The surviving fraction in experiment [2] (50 nM) was determined as 1.076 ± 0.006; in experiment [2] (100 nM), 1.104 ± 0.011; in experiment [2] (500 nM) it was 1.09 ± 0.04; in experiment [2] (1000 nM), 1.08 ± 0.036.
Turning to G292 BONE, the surviving fraction in experiment [1] (0.5 nM) is 0.93 ± 0.062; in experiment [1] (1 nM), 0.917 ± 0.035; in experiment [1] (5 nM) it was 0.801 ± 0.018; in experiment [1] (10 nM), 0.566 ± 0.0083; in experiment [1] (50 nM), 0.207 ± 0.0036; in experiment [1] (100 nM) it was 0.173 ± 0.011. The surviving fraction came out at 0.138 ± 0.021 in experiment [1] (500 nM); 0.107 ± 0.0059 in experiment [1] (1000 nM); 0.893 ± 0.022 in experiment [2] (0.5 nM); 0.977 ± 0.042 in experiment [2] (1 nM); 0.973 ± 0.039 in experiment [2] (5 nM); 0.972 ± 0.043 in experiment [2] (10 nM). In addition, the surviving fraction turned out to be 0.956 ± 0.024 in experiment [2] (50 nM), 1.0012 ± 0.00029 in experiment [2] (100 nM), 0.979 ± 0.026 in experiment [2] (500 nM) and 0.973 ± 0.085 in experiment [2] (1000 nM).
Take HCC1395 BREAST: the surviving fraction was found to be 0.849 ± 0.077 in experiment [1] (0.5 nM); 0.904 ± 0.088 in experiment [1] (1 nM); 0.849 ± 0.07 in experiment [1] (5 nM); 0.748 ± 0.11 in experiment [1] (10 nM); 0.79 ± 0.072 in experiment [1] (50 nM); 0.804 ± 0.1 in experiment [1] (100 nM). Besides, the surviving fraction in experiment [1] (500 nM) was found to be 0.698 ± 0.06; in experiment [1] (1000 nM), 0.762 ± 0.19; in experiment [2] (0.5 nM), 0.827 ± 0.0092; in experiment [2] (1 nM), 0.878 ± 0.15; in experiment [2] (5 nM) it was 0.82 ± 0.15; in experiment [2] (10 nM) it was 0.787 ± 0.06. For the same test system, the surviving fraction in experiment [2] (50 nM) came out at 0.788 ± 0.17; in experiment [2] (100 nM), 0.888 ± 0.042; in experiment [2] (500 nM), 0.824 ± 0.08; in experiment [2] (1000 nM), 0.927 ± 0.098.
In the case of HUO3N1 BONE, the surviving fraction in experiment [1] (0.5 nM) turned out to be 1.01 ± 0.05; in experiment [1] (1 nM), 0.976 ± 0.015; in experiment [1] (5 nM), 1.05 ± 0.059; in experiment [1] (10 nM), 0.95 ± 0.072; in experiment [1] (50 nM) it was 0.85 ± 0.022; in experiment [1] (100 nM) it was 0.816 ± 0.018. Besides, the surviving fraction in experiment [1] (500 nM) came to 0.693 ± 0.04; in experiment [1] (1000 nM), 0.608 ± 0.018; in experiment [2] (0.5 nM), 0.849 ± 0.014; in experiment [2] (1 nM) it was 0.886 ± 0.035; in experiment [2] (5 nM), 0.92 ± 0.055; in experiment [2] (10 nM), 0.913 ± 0.042. In addition, the surviving fraction came out at 0.989 ± 0.028 in experiment [2] (50 nM), 1.02 ± 0.059 in experiment [2] (100 nM), 1.01 ± 0.063 in experiment [2] (500 nM) and 1.01 ± 0.067 in experiment [2] (1000 nM).
As for LNCAP PROSTATE, the surviving fraction worked out at 0.881 ± 0.092 in experiment [1] (0.5 nM); 0.995 ± 0.12 in experiment [1] (1 nM); 0.861 ± 0.036 in experiment [1] (5 nM); 0.829 ± 0.043 in experiment [1] (10 nM); 0.821 ± 0.13 in experiment [1] (50 nM); 0.903 ± 0.037 in experiment [1] (100 nM). The surviving fraction was 0.752 ± 0.11 in experiment [1] (500 nM); 0.857 ± 0.25 in experiment [1] (1000 nM); 1.17 ± 0.08 in experiment [2] (0.5 nM); 1.08 ± 0.051 in experiment [2] (1 nM); 1.15 ± 0.097 in experiment [2] (5 nM); 1.12 ± 0.035 in experiment [2] (10 nM). The surviving fraction in experiment [2] (50 nM) came out at 0.892 ± 0.11; in experiment [2] (100 nM), 0.846 ± 0.011; in experiment [2] (500 nM), 0.898 ± 0.09; in experiment [2] (1000 nM), 1.03 ± 0.12.
In the case of SCC003 HEADNECK, the surviving fraction in experiment [1] (0.5 nM) amounted to 1.05 ± 0.091; in experiment [1] (1 nM), 1.03 ± 0.014; in experiment [1] (5 nM), 1.13 ± 0.06; in experiment [1] (10 nM), 1.1 ± 0.083; in experiment [1] (50 nM) it was 1.07 ± 0.021; in experiment [1] (100 nM), 1.1 ± 0.065. Moreover, the surviving fraction was 1.02 ± 0.088 in experiment [1] (500 nM); 0.996 ± 0.071 in experiment [1] (1000 nM); 0.76 ± 0.094 in experiment [2] (0.5 nM); 0.825 ± 0.065 in experiment [2] (1 nM); 0.829 ± 0.14 in experiment [2] (5 nM); 0.81 ± 0.11 in experiment [2] (10 nM). Further, the surviving fraction in experiment [2] (50 nM) came to 0.983 ± 0.06; in experiment [2] (100 nM), 1.02 ± 0.034; in experiment [2] (500 nM), 1.01 ± 0.035; in experiment [2] (1000 nM), 1.02 ± 0.17.
